Assay results from the NIST ThermoML archive (doi:10.1016/j.jct.2013.04.015).

Experiments:
[1] = xn = mol fraction of the nth substance listed; settings: for surface tension liquid-gas: Wilhelmy plate method; for mass density: 101 kPa, Liquid, Vibrating tube method
[2] = for surface tension liquid-gas: Wilhelmy plate method; for mass density: 101 kPa, Liquid, Vibrating tube method

CCCCn1cc[n+](C)c1.C[C@H](O)C(=O)[O-] [1-butyl-3-methylimidazolium L-lactate] + CCO
[1]
Settings	mass density [kg/m3]	surface tension liquid-gas [mN/m]
298.15 K, x1 = 0.01	–	22.44
298.15 K, x1 = 0.0299	–	22.99
298.15 K, x1 = 0.0497	–	23.47
298.15 K, x1 = 0.0708	–	24
298.15 K, x1 = 0.0944	–	24.54
298.15 K, x1 = 0.0997	897.2	–
298.15 K, x1 = 0.1987	959.5	–
298.15 K, x1 = 0.2001	–	26.97
298.15 K, x1 = 0.3018	–	29.2
298.15 K, x1 = 0.3066	1002	–
298.15 K, x1 = 0.4019	–	31.51
298.15 K, x1 = 0.4106	1028.2	–
298.15 K, x1 = 0.4954	1042.5	–
298.15 K, x1 = 0.499	–	33.45
298.15 K, x1 = 0.5989	1058.4	–
298.15 K, x1 = 0.6216	–	35.27
298.15 K, x1 = 0.6985	1070.8	–
298.15 K, x1 = 0.7009	–	36.3
298.15 K, x1 = 0.7524	–	37.06
298.15 K, x1 = 0.7869	1082.1	–
298.15 K, x1 = 0.8381	–	38.77
298.15 K, x1 = 0.8978	1095.2	–
298.15 K, x1 = 1	1111.2	42.92
308.15 K, x1 = 0.01	–	21.58
308.15 K, x1 = 0.0302	–	22.12
308.15 K, x1 = 0.0474	–	22.62
308.15 K, x1 = 0.0707	–	23.22
308.15 K, x1 = 0.0952	–	23.9
308.15 K, x1 = 0.0997	888.9	–
308.15 K, x1 = 0.1987	951.9	–
308.15 K, x1 = 0.2028	–	26.53
308.15 K, x1 = 0.3026	–	28.8
308.15 K, x1 = 0.3066	994.7	–
308.15 K, x1 = 0.406	–	31.08
308.15 K, x1 = 0.4106	1021.1	–
308.15 K, x1 = 0.4954	1034.3	–
308.15 K, x1 = 0.4966	–	32.88
308.15 K, x1 = 0.5989	1050.4	–
308.15 K, x1 = 0.6053	–	34.78
308.15 K, x1 = 0.6882	–	35.51
308.15 K, x1 = 0.6985	1062.4	–
308.15 K, x1 = 0.7869	1073.8	–
308.15 K, x1 = 0.7888	–	36.81
308.15 K, x1 = 0.8313	–	37.9
308.15 K, x1 = 0.8978	1086.9	–
308.15 K, x1 = 1	1104.2	42.37
318.15 K, x1 = 0.01	–	20.88
318.15 K, x1 = 0.0304	–	21.56
318.15 K, x1 = 0.0448	–	21.9
318.15 K, x1 = 0.0702	–	22.56
318.15 K, x1 = 0.0958	–	23.39
318.15 K, x1 = 0.0997	881.9	–
318.15 K, x1 = 0.1987	944	–
318.15 K, x1 = 0.203	–	26.09
318.15 K, x1 = 0.3032	–	28.36
318.15 K, x1 = 0.3066	987.7	–
318.15 K, x1 = 0.4034	–	30.45
318.15 K, x1 = 0.4106	1014.5	–
318.15 K, x1 = 0.4954	1028.3	–
318.15 K, x1 = 0.5017	–	32.46
318.15 K, x1 = 0.5989	1042.6	–
318.15 K, x1 = 0.6042	–	34.23
318.15 K, x1 = 0.6657	–	34.84
318.15 K, x1 = 0.6985	1055.3	–
318.15 K, x1 = 0.7561	–	35.48
318.15 K, x1 = 0.7869	1066.9	–
318.15 K, x1 = 0.8319	–	36.61
318.15 K, x1 = 0.8978	1079.8	–
318.15 K, x1 = 1	1097.7	42.01

CCCCn1cc[n+](C)c1.C[C@H](O)C(=O)[O-] [1-butyl-3-methylimidazolium L-lactate]
[2]
Settings	mass density [kg/m3]	surface tension liquid-gas [mN/m]
293.15 K	1115.3	43.14
298.15 K	1111.2	42.92
303.15 K	1107.5	42.79
308.15 K	1104.2	42.37
313.15 K	1100.5	42.19
318.15 K	1097.7	42.01
323.15 K	1094.1	41.64
333.15 K	1086.1	41.04
343.15 K	1079.8	40.56

CCCCO [butan-1-ol]
[2]
Settings	mass density [kg/m3]	surface tension liquid-gas [mN/m]
298.15 K	805.7	23.89
308.15 K	798	23.46
318.15 K	790.1	22.62
